This passage reports solubility results from patent US11034673B2, “(S)-N-(3-(6-isopropoxypyridin-3-yl)-1H-indazol-5-yl)-1-(2-(4-(4-(1-methyl-1H-1,2,4-triazol-3-yl)phenyl)-3,6-dihydropyridin-1(2H)-yl)-2-oxoethyl)-3-(methylthio)pyrrolidine-3-carboxamide compositions for pharmaceutical preparations” (Merck Sharp & Dohme Corp., priority 2014, dated 2021).

The data set in a line: solubility of crystalline form. Format: physicochemical.

As for `CS[C@@]1(C(=O)Nc2ccc3[nH]nc(-c4ccc(OC(C)C)nc4)c3c2)CCN(CC(=O)N2CC=C(c3ccc(-c4ncn(C)n4)cc3)CC2)C1` [crystalline hydrate Form 2, (S)—N-(3-(6-isopropoxypyridin-3-yl)-1H-indazol-5-yl)-1-(2-(4-(4-(1-methyl-1H-1,2,4-triazol-3-yl)phenyl)-3,6-dihydropyridin-1(2H)-yl)-2-oxoethyl)-3-(methylthio)pyrrolidine-3-carboxamide], the solubility entry is “poor solubility”.
